Literature values, collected in publication PMC3038857, “Using Nuclear Receptor Activity to Stratify Hepatocarcinogens” (PLoS ONE, 2011).

Tests used:
Rat Liver [1] = settings: rat chronic study, liver, neoplastic lesion; coded 6 / 0, code not explained in the table; ref ToxRefDB; cited from earlier work
Mouse Liver [2] = settings: mouse chronic study, liver, any lesion; coded 6 / Inf, code not explained in the table; ref ToxRefDB; cited from earlier work
Rat Liver [3] = settings: rat chronic study, liver, any lesion; coded 6 / 0, code not explained in the table; ref ToxRefDB; cited from earlier work
Mouse Liver [4] = settings: mouse chronic study, liver, neoplastic lesion; coded 6 / Inf, code not explained in the table; ref ToxRefDB; cited from earlier work
Rat Liver [5] = settings: rat chronic study, liver, preneoplastic lesion; coded 6 / 0, code not explained in the table; ref ToxRefDB; cited from earlier work
Mouse Liver [6] = settings: mouse chronic study, liver, preneoplastic lesion; coded 6 / Inf, code not explained in the table; ref ToxRefDB; cited from earlier work

Row | Compound | CHR_Rat_Liver_3_NeoplasticLesion (Rat Liver [1]) | CHR_Mouse_Liver_1_AnyLesion (Mouse Liver [2]) | CHR_Rat_Liver_1_AnyLesion (Rat Liver [3]) | CHR_Mouse_Liver_3_NeoplasticLesion (Mouse Liver [4]) | CHR_Rat_Liver_2_PreneoplasticLesion (Rat Liver [5]) | CHR_Mouse_Liver_2_PreneoplasticLesion (Mouse Liver [6])
1 | CCCOC(=O)c1ccc(C(=O)OCCC)nc1 [Dataset S3 row 4] | 6 | 6 | 6 | 6 | 6 | 6
2 | Oc1ccccc1-c1ccccc1 [Dataset S3 row 5] | – | 6 | – | 6 | – | 6
3 | CCCCNC(=O)OCC#CI [Dataset S3 row 6] | 0 | 6 | 6 | 6 | 0 | 6
4 | CCCCNC(=O)OCC#CI [Dataset S3 row 7] | 0 | 6 | 6 | 6 | 0 | 6
5 | Cc1ccc(/N=C/N(C)/C=N/c2ccc(C)cc2C)c(C)c1 [Dataset S3 row 18] | 0 | 6 | 0 | 6 | 0 | 6
6 | CCCCN(CC)c1c([N+](=O)[O-])cc(C(F)(F)F)cc1[N+](=O)[O-] [Dataset S3 row 26] | – | 6 | – | 6 | – | 6
7 | CCCCNC(=O)n1c(NC(=O)OC)nc2ccccc21 [Dataset S3 row 27] | – | 6 | – | 6 | – | 6
